The record followed here is patent publication US11649218B2, “C-Abl tyrosine kinase inhibitory compound embodiments and methods of making and using the same” (The USA, as represented by the Secretary, Dept. of Health …, priority 2018, dated 2023).

This experiment deals with Leukemia K562 cell. Put plainly: Leukemia K562 cell proliferation/viability assay (CellTiterGlo, 48 hours). It counts as cell-based. Further details: unit not given here. The note with it: K562 cells. The protocol:
C-Abl is encoded by the ABL1 gene (NCBI Gene ID NO. 25). […] Assays for determining if a small molecule inhibits c-Abl activity are known. Non-limiting examples include cell proliferation assays using cancer cells that are BCR-Abl positive and depend on BCR-Abl for growth, such as the leukemia cell line K562. […] In some embodiments described herein, compounds are tested for ability to reduce K562 cell proliferation in an HTS adapted assay which measures cell viability using the reagent CellTiterGlo after 48 hours treatment.
Regarding `O=C1Nc2cc(C(F)(F)F)ccc2Oc2ccc(-c3ccnc(N4CCOCC4)c3)cc21` [NCGC00481506, 2-(2-Morpholinopyridin-4-yl)-8-(trifluoromethyl)dibenzo[b,f][1,4]oxazepin-11(10H)-one], the Efficacy is reported as −87.5.

In turn, `O=C1Nc2cc(OC(F)(F)F)ccc2Oc2ccc(CCB(O)O)cc21` [NCGC00390141, (2-(11-Oxo-8-(trifluoromethoxy)-10,11-dihydrodibenzo[b,f][1,4]oxazepin-2-yl)ethyl)boronic acid] showed an Efficacy of −45.8. Compound `O=C(O)c1ccc2c(c1)C(=O)Nc1cc(OC(F)(F)F)ccc1O2` [NCGC00387752] yielded an Efficacy of 0.0. As for `CS(=O)(=O)Nc1cccc(-c2ccc3c(c2)Oc2ccc(OC(F)(F)F)cc2NC3=O)c1` [NCGC00384235, N-(3-(11-Oxo-8-(trifluoromethoxy)-10,11-dihydrodibenzo[b,f][1,4]oxazepin-3-yl)phenyl)methanesulfonamide], the Efficacy was −99.8.

With `O=C1Nc2cc(OCCC(F)(F)F)ccc2Oc2ccc(-c3ccnc(N4CCOCC4)c3)cc21` [NCGC00481507, 2-(2-Morpholinopyridin-4-yl)-8-(3,3,3-trifluoropropoxy)dibenzo[b,f][1,4]oxazepin-11(10H)-one], the Efficacy was −85.5. `O=C1Nc2cc(OC(F)(F)F)ccc2Oc2ccc(-c3ccc(CN4CCNCC4)s3)cc21` [NCGC00388560, 2-(5-(Piperazin-1-ylmethyl)thiophen-2-yl)-8-(trifluoromethoxy)dibenzo[b,f][1,4]oxazepin-11(10H)-one] returned an Efficacy of −95.0. For the compound `O=C(NCCO)c1cccc(-c2ccc3c(c2)C(=O)Nc2cc(OC(F)(F)F)ccc2N3)c1` [NCGC00355556, N-(2-hydroxyethyl)-3-(11-oxo-8-(trifluoromethoxy)-10,11-dihydro-5H-dibenzo[b,e][1,4]diazepin-2-yl)benzamide], the Efficacy is −90.9. On to `CC(C)(O)c1cccc(-c2ccc3c(c2)C(=O)Nc2cc(OC(F)(F)F)ccc2O3)c1` [NCGC00411876, 2-(3-(2-Hydroxypropan-2-yl)phenyl)-8-(trifluoromethoxy)dibenzo[b,f][1,4]oxazepin-11(10H)-one], for which the Efficacy is recorded as −86.3. Take `O=C1Nc2cc(OC(F)(F)F)ccc2Oc2ccc(B(O)O)cc21` [NCGC00387437, (11-Oxo-8-(trifluoromethoxy)-10,11-dihydrodibenzo[b,f][1,4]oxazepin-2-yl)boronic acid]: the Efficacy was −82.6. In turn, `O=C1Nc2cc(OC(F)(F)F)ccc2Oc2ccc(-c3cnn(CCN4CCOCC4)c3)cc21` [NCGC00387296, 2-(1-(2-Morpholinoethyl)-1H-pyrazol-4-yl)-8-(trifluoromethoxy)dibenzo[b,f][1,4]oxazepin-11(10H)-one] returned an Efficacy of −81.7. `O=C(NCCO)c1cccc(-c2cc(Nc3ccc(OC(F)(F)F)cc3)ncn2)c1` [GNF-5] came in with an Efficacy of −85.8. The value for `O=C1Nc2cc(OC(F)(F)F)ccc2Oc2ccc(-c3cccnc3)cc21` [NCGC00371308, 2-(Pyridin-3-yl)-8-(trifluoromethoxy)dibenzo[b,f][1,4]oxazepin-11(10H)-one] was −7.0. Consider `CN1C(=O)c2cc(-c3cccc(NS(C)(=O)=O)c3)ccc2Oc2ccc(OC(F)(F)F)cc21` [NCGC00384233], for which the Efficacy is −75.1. For the compound `NCCNC(=O)c1cccc(-c2ccc3c(c2)C(=O)Nc2cc(OC(F)(F)F)ccc2N3)c1` [NCGC00355568, N-(2-Aminoethyl)-3-(11-oxo-8-(trifluoromethoxy)-10,11-dihydro-5H-dibenzo[b,e][1,4]diazepin-2-yl)benzamide], the Efficacy is on record as −81.4. Next, `CN1CCN(C(=O)c2cccc(-c3ccc4c(c3)C(=O)Nc3cc(OC(F)(F)F)ccc3O4)c2)CC1` [NCGC00356690, 2-(3-(4-Methylpiperazine-1-carbonyl)phenyl)-8-(trifluoromethoxy)dibenzo[b,f][1,4]oxazepin-11(10H)-one]: −121.9.
